Data as given in patent US6524625B2, “Physiologically active extract obtained from indigo plant polygonum tinctorium” (Kabushiki Kaisha Hayashibara Seibutsu Kagaku Kenkyuto, priority 1998, dated 2003).
Values after ≈ are worked out from the molar mass of the structure shown. Read-outs that look alike come from different tables or passages of the source.

Experiments:
[1] = test system: Staphylococcus aureus (ATCC 6538P); test: Antiseptic action: MIC, agar plate dilution method; type: cell-based; conditions: ATCC6538P; Staphylococcus aureus (ATCC 6538P); read-out: Minimum inhibitory concentration
[2] = test system: Bacillus cereus (IFO 3466); test: Antiseptic action: MIC, agar plate dilution method; type: cell-based; conditions: IFO3466; Bacillus cereus (IFO 3466); read-out: Minimum inhibitory concentration
[3] = test system: Pseudomonas aeruginosa (IFO 3453); test: Antiseptic action: MIC, agar plate dilution method; type: cell-based; conditions: IFO3453; Pseudomonas aeruginosa (IFO 3453); read-out: Minimum inhibitory concentration
[4] = Radical-entrapping action, nitro blue tetrazolium (NBT) method; type: biochemical; conditions: for Radical-entrapping action: one unit = 50% inhibition of formazan formation, xanthin oxidase/xanthin/NBT; for Radical-entrapping action (in words): comment on Table 11
Experimental: Then the formed formazan was quantified on spectro-chemical analysis. Either of the present physiologically active extracts was dissolved in a refined water to give an appropriate concentration, and the solutions were used for test samples. As a control it was provided by replacing the test samples with a refined water. The 50% inhibitory activity for the formation of formazan in the control was defined as a one unit activity of radical-entrapping action. Based of the definition, the radical-entrapping activity of one gram of each test sample was determined.

HLC-1 cells = test: Antitumor action: growth inhibition, methylene blue staining; type: cell-based; conditions: Homo sapiens; HLC-1 cells, 48 hours; read-out: 50% growth inhibitory concentration
Experimental: (§1) Solutions in each well were serially diluted with a fresh preparation of the same RPMI1640 medium (pH 7.2) as used in the above. […] Each cell suspension was distributed to a microplate in a volume of 50 μl/well and incubated at 37° C. for 48 hours in a 5 v/v % CO2 incubator. To each microplate, a 25 v/v % aqueous glutaraldehyde solution was added in a volume of 20 μl/well, and the microplate was allowed to stand for 15 min to fix the cells. Then, the cells adhered to the wells were washed with water, admixed with a 0.05 w/v % aqueous methylene blue solution in a volume of 100 μl/well, and further allowed to stand for 15 min to stain the cells. Thereafter, an excessive amount of the staining solution was removed from the wells by washing with water, and the cells were dried, admixed with 300 μl/well of 0.33 N hydrochloric acid, stirred sufficiently, and measured for absorption at a wavelength of 620 nm. In parallel, as a control, a system free of a test sample was provided and treated similarly as in the test samples. […]

HL-60 cells = test: as above; type: cell-based; conditions: Homo sapiens; HL-60 cells, 48 hours; read-out: 50% growth inhibitory concentration
Experimental: as §1

HGC-27 cells = test: as above; type: cell-based; conditions: Homo sapiens; HGC-27 cells, 48 hours; read-out: 50% growth inhibitory concentration
Experimental: as §1

[5] = test system: Helicobacter pylori (NCTC 11638); test: Antiseptic action: MIC, agar plate dilution method; type: cell-based; conditions: for MIC: NCTC11638, Helicobacter pylori (NCTC 11638), Brucella broth agar with horse blood, read-out: Minimum inhibitory concentration; for Inhibition of the growth of Helicobacter pylori (in words): comment on Table 8
[6] = test system: vesicular stomatitis virus (VSV); test: microbe, parasite or virus in culture; type: cell-based; conditions: L929, 24 h, read-out: 50% Growth inhibitory concentration
interferon-γ production = conditions: HBL-38 cells + LPS; for Interferon-γ production level: 24 hours, positive control 5.468, negative control 1.367
Experimental: HBL-38 cells as an immunocompetent cell were cultured until proliferated to a prescribed cell density. After culturing, the proliferated HBL-38 cells were washed three times with RPMI1640 medium (pH 7.2) (hereinafter designated as “serum-free medium” in Experiment 15) by centrifugation, and adjusted to give a cell density of 1×10^8 cells/ml using the serum-free medium. To one milliliter of the cell suspension were added 4.5 ml of the serum-free medium and 0.5 ml of a disperse solution prepared by dissolving dispase, commercialized by Godo Shusei, Co., Ltd., Tokyo, Japan, in physiological saline to give a concentration of 10,000 units/ml, and the mixture was incubated at 37° C. for 90 min under shaking conditions. Thereafter, HBL-38 cells were washed three times with the serum medium by centrifugation and mixed with the serum medium into a cell suspension with a cell density of 1×10^6 cells/ml.
(§2) […] of either of the above dilutes of Compound 7, 150 μl of the above cell suspension of HBL-38 cells treated with disperse, and 50 μl of a serum-free medium containing 5 μg/ml of lipopolysaccharide (LPS) were added to each well in a microplate, and the cells were incubated at 37° C. for 24 hours in a 5 v/v % CO2 incubator and used for test group. In parallel, as a negative control, a system with a serum-free medium in place of the serum-free medium containing LPS in the test group, and, as a positive group, a system with a serum medium in place of the dilute of Compound 7 in the test group were provided and treated similarly as in test group. After 24-hour incubation, 50 μl aliquots of supernatants from each well were collected. The collected supernatants were respectively subjected to conventional enzyme immunoassay using Gg23-901-530, obtained from National Institute of Health, Bethesda, Md., USA, as a standard for human interferon-γ, and quantified for interferon-γ production in each system. The cells in each well, from which the supernatants were removed, were mixed with 50 μl aliquots of a ^3H-thymidine solution with a radiation intensity of 5 μCi/ml in serum medium, and incubated at 37° C. for eight hours in a 5 v/v % CO2 incubator. Thereafter, the cells in each well in the microplate were collected with a glass filter, measured for radiation intensity by “DIRECT β-COUNTER MATRIX 96”, a β-ray detector commercialized by Packard Instrument Co., Conn., USA, and examined for ^3H-thymidine uptake by the cells in each well. […] In Table 13 the level of ^3H-thymidine uptake is expressed with a relative value (%) to the positive control.

HBL-38 cells = conditions: for Relative value of 3H-thymidine uptake: HBL-38 cells, relative to positive control = 100
Experimental: as §2

SMILES: O=c1c(O)c(-c2ccc(O)cc2)oc2cc3c(c(O)c12)OCO3 [Compound 2, 3,5, 4′-trihydroxy-6,7-methylenedioxy-flavone]
- MIC [1]: 313 µg/mL (≈ 996 µM)
- MIC [2]: 313 µg/mL (≈ 996 µM)
- MIC [3]: 313 µg/mL (≈ 996 µM)
- Radical-entrapping action [4]: 1,830 unit/g
- IC50 (HLC-1 cells): 40.4 µg/mL (≈ 129 µM)
- IC50 (HL-60 cells): 244 µg/mL (≈ 775 µM)
- IC50 (HGC-27 cells): 37.1 µg/mL (≈ 118 µM)
- MIC [5]: 156 µg/mL (≈ 496 µM)
- IC50 [6]: 14 µg/mL (≈ 44.6 µM)

SMILES: O=c1c(O)c(-c2ccc(O)cc2)oc2cc(O)cc(O)c12 [Compound 3, kaempferol]
- Radical-entrapping action [4]: 14,000 unit/g
- MIC [5]: 39 µg/mL (≈ 136 µM)
- Inhibition of the growth of Helicobacter pylori (in words) [5]: strongly inhibited the growth

SMILES: COc1c(O)cc2oc(-c3ccc(O)cc3)c(O)c(=O)c2c1O [Compound 4, 3,5,7,4′-tetrahydroxy-6-methoxy-flavone]
- Radical-entrapping action [4]: 4,010 unit/g
- MIC [5]: 39 µg/mL (≈ 123 µM)
- Inhibition of the growth of Helicobacter pylori (in words) [5]: strongly inhibited the growth

SMILES: O=C(O)c1cc(O)c(O)c(O)c1 [Compound 5, gallic acid]
- Radical-entrapping action (in words) [4]: remarkable
- Radical-entrapping action [4]: 692,000 unit/g

SMILES: O=C(O)/C=C/c1ccc(O)c(O)c1 [Compound 6, caffeic acid]
- Radical-entrapping action (in words) [4]: remarkable
- Radical-entrapping action [4]: 418,000 unit/g

SMILES: O=C1Nc2ccccc2/C1=C1/Nc2ccccc2C1=O [Compound 7, 3-(1,3-dihydro-3-oxo-2H-indol-2-ylidene)-1,3-dihydro-2H-indol-2-one]
- Interferon-γ production level (interferon-γ production; 0.07 ng/ml): 2.753 IU/ml
- Interferon-γ production level (interferon-γ production; 0.15 ng/ml): 2.195 IU/ml
- Interferon-γ production level (interferon-γ production; 0.31 ng/ml): 1.979 IU/ml
- Interferon-γ production level (interferon-γ production; 0.62 ng/ml): 1.958 IU/ml
- Interferon-γ production level (interferon-γ production; 1.25 ng/ml): 1.288 IU/ml
- Interferon-γ production level (interferon-γ production; 2.5 ng/ml): 1.342 IU/ml
- Interferon-γ production level (interferon-γ production; 5.0 ng/ml): 0.932 IU/ml
- Interferon-γ production level (interferon-γ production; 10.0 ng/ml): 0.965 IU/ml
- Concentration at which interferon-γ production was inhibited to the same or lower level as the negative control free of LPS (interferon-γ production): at least 1.25 ng/ml
- Inhibition of interferon-γ production (in words) (interferon-γ production): inhibited the interferon-γ production dose-dependently
- Relative value of 3H-thymidine uptake (HBL-38 cells; 0.07 ng/ml): 98.0%
- Relative value of 3H-thymidine uptake (HBL-38 cells; 0.15 ng/ml): 98.3%
- Relative value of 3H-thymidine uptake (HBL-38 cells; 0.31 ng/ml): 99.7%
- Relative value of 3H-thymidine uptake (HBL-38 cells; 0.62 ng/ml): 96.4%
- Relative value of 3H-thymidine uptake (HBL-38 cells; 1.25 ng/ml): 99.6%
- Relative value of 3H-thymidine uptake (HBL-38 cells; 2.5 ng/ml): 105.7%
- Relative value of 3H-thymidine uptake (HBL-38 cells; 5.0 ng/ml): 101.1%
- Relative value of 3H-thymidine uptake (HBL-38 cells; 10.0 ng/ml): 99.4%
- Level of 3H-thymidine uptake by HBL-38 cells, control vs test groups (in words) (HBL-38 cells; 0.07-10.0 ng/ml): no significant difference
